# Results as given in patent US8080529B2, “Macrolides with anti-inflammatory activity” (Glaxo Group Limited, priority 2005, dated 2011).
# Experiments:
# granulocytes = experiment: Inhibition of degranulation of granulocytes (free neutrophil elastase activity); type: cell-based, human
# Protocol: Granulocytes were obtained from heparinized whole blood using density gradiant centrifugation. Erythrocytes were sedimented on 3% dextran T-500 (Amersham Pharmacia Biotech AB, Uppsala, Sweden). Leukocytes were centrifuged on Ficoll (Amersham Pharmacia Biotech AB, Uppsala, Sweden) for 35 min at 600 g at 20° C. The pellet of granulocytes was cleared from remaining erythrocytes by a brief hypotonic lysis.
# 1×10^6 granulocytes, isolated as described above, were resuspended in RPMI-1640 medium (Institute of Immunology, Croatia), and were incubated with 10 or 50 μM of test compound together with cytochalasine B (5 μg/mL) for 2 h at 37° C. Degranulation then was induced by the addition of 0.1 μM fMLP (Sigma, USA) or 0.5 μM A23187 (Calbiochem, USA). The activity of free neutrophil elastase was determined with a chromogenic substrate specific for human neutrophil elastase, such as N-(methoxysuccinyl)-L-alanyl-L-alanyl-L-prolyl-L-valine 4-nitroanilide (Sigma Chemical Company, St Louis, Mo., USA). Elastase activity, as a marker of primary granules, was assessed in supernatant using a spectrophotometer at an absorbance of 405 nm.
# Results are expressed as the percent of inhibition of degranulation in unstimulated cells, and in stimulated cells treated with fMLP or A23187.
# neutrophils = experiment: Lung neutrophilia induced by bacterial lipopolysaccharide in male BALB/cJ mice: cells in BALF and lung tissue; type: in vivo; details: 5 mg i.p.; 24 hours after LPS
# Protocol: (§1) Male BALB/cJ mice (Iffa Credo, France), with average weight 30 g were randomly grouped (n=7 in testing group, 8 in positive control, 7 in negative control). Mice were administered intraperitoneally (i.p.) a single dose of 5 or 2.5 mg of test compound. Two hours after administration, 2 μg of bacterial lipopolysaccharide (LPS), dissolved in PBS in a volume of 60 μL, was intranasally administered to all experimental groups except the negative control group, which received the same volume (60 μL) of vehicle PBS. Animals were sacrificed approximately 24 hours after application of LPS in order to obtain bronchoalveolar lavage fluid (BALF), which was used to determine concentrations of IL-6 and TNF-α, absolute number of cells, and the percentage of neutrophils in BALF. Results are expressed as percentage of decrease of total cell number, relative number of neutrophils, and TNF-α, and IL-6 concentration in BALF of treated animals compared to positive control (LPS stimulated, but untreated animals).
# (§2) Results are expressed as percentage of decrease of total cell number, relative number of neutrophils, and TNF-alpha and IL-6 concentration in BALF of treated animals compared to positive control (LPS stimulated, but untreated animals).
# Besides accumulation of inflammatory cells in BALF, the extent and anatomic site of pulmonary inflammation induced by LPS was assessed 24 hours after PBS or LPS exposure. Accumulation of granulocytes and mononuclear cells in peribronchial (PB) and perivascular (PV) lung tissue areas and in alveolar spaces was monitored following sacrifice of the animals.
# TNF-α = experiment: Lung neutrophilia induced by bacterial lipopolysaccharide in male BALB/cJ mice: TNF-α in BALF; type: in vivo; details: 5 mg i.p.; 24 hours after LPS
# Protocol: as §1, §2
# IL-5 = experiment: Inhibition of IL-5 production by PHA-stimulated human PBMC in vitro; type: cell-based; details: 3 days
# Protocol: (§3) Heparinized peripheral blood was obtained from healthy donors, and peripheral blood mononuclear cells (PBMC) were isolated by Histopaque 1077 (Sigma, USA) density centrifugation at 400×g for 30 minutes. Collected PBMC were centrifuged in plasma at 400×g for 10 min, resuspended and washed in RPMI 1640 (Institute of Immunology, Croatia) by centrifugation.
# (§4) Peripheral blood mononuclear cells (PBMC), isolated as described above, were seeded in a 48-well plate at a concentration of 1×10^6 cells per well in the RPMI culture medium described above. Cells were stimulated with 10 μg/mL phytohaemagglutinin (PHA) (Sigma, USA) and incubated at 37° C., 5% CO2 in 90% humidity with tested compounds (10 and 50 μM) for 3 days. Cytokine concentrations were determined in supernatants by sandwich ELISA, using capture and detection antibodies (R&D, USA) according to the manufacturer's recommendations.
# (§5) Inhibition (as percentage) was calculated using the following formula: % inhibition=(1−concentration of cytokines in sample/concentration of cytokines in positive control)×100.
# (§6) The positive control refers to LPS-, PMA- or zymosan-stimulated samples that were not treated with test compounds.
# IL-2 = experiment: Inhibition of IL-2 production by PHA-stimulated human PBMC in vitro; type: cell-based; details: 3 days
# Protocol: as §3, §4, §5, §6
# IL-6 = experiment: Lung neutrophilia induced by bacterial lipopolysaccharide in male BALB/cJ mice: IL-6 in BALF; type: in vivo; details: 5 mg i.p.; 24 hours after LPS
# Protocol: as §1, §2
smiles,measurement,setting,value
"CCC1OC(=O)C(C)C(OC2CC(C)(OC)C(OC(=O)CCN(CC)CC)C(C)O2)C(C)C(OC2OC(C)CC(N(C)C)C2O)C(C)(OC)CC(C)C(=O)NC(C)C(O)C1(C)O (stereo not drawn) [Example 8, 4″-O-(3-Diethylamino-propionyl)-6-O-methyl-9a-aza-9a-homoerythromycin A]",Percentage of inhibition of degranulation of granulocytes,"granulocytes; A23187 0.5 μM, compound 10 μM",10%
same,Percentage of inhibition of degranulation of granulocytes,"granulocytes; A23187 0.5 μM, compound 50 μM",24%
same,Percentage of inhibition of degranulation of granulocytes,"granulocytes; fMLP 0.1 μM, compound 10 μM",52%
same,Percentage of inhibition of degranulation of granulocytes,"granulocytes; fMLP 0.1 μM, compound 50 μM",72%
same,% decrease of neutrophils in BALF,neutrophils,52%
same,% decrease of total cell no. in BALF,neutrophils,84%
same,Percentage of decrease of TNF-α concentration in BALF,TNF-α,69%
same,Percentage of inhibition of IL-5 production,IL-5; 10 μM,34%
same,Percentage of inhibition of IL-5 production,IL-5; 50 μM,85%
same,Percentage of inhibition of IL-2 production,IL-2; 10 μM,100%
same,Percentage of inhibition of IL-2 production,IL-2; 50 μM,100%
same,Percentage of decrease of IL-6 concentration in BALF,IL-6,67%
